One assay concerns the target T1, AuroraB (Homo sapiens, UniProt Q96GD4).
T1 construct: 20 µL of AuroraB FL His; His
The assay can be described thus: AuroraB Homogeneous Time Resolved Fluorescent (HTRF) kinase assay. In kind it is biochemical. To be noted: average, read-out: AurB_ _IC50_IP (Avg). Summed up: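 Full-length His-tagged AuroraB (400 pM) phosphorylates 0.1 µM biotinylated Histone H3 with 23 µM ATP (Km(app)) in HEPES pH 7.5 with Mg/Mn, about 90 min. EDTA-quenched; Eu-anti-phosphoHistoneH3 and SA-APC HTRF, 655/615 nm ratio as phosphorylation.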
A general note: TR-FRET usually uses a lanthanide donor and a delayed reading to cut background.

The next assay has as its target T2, AuroraA-TPX2 (Homo sapiens, UniProt O14965).
T2 construct: 20 µL of AuroraA-TPX2 KD GST; GST
T2 sequence (O14965 133-383 limits assumed): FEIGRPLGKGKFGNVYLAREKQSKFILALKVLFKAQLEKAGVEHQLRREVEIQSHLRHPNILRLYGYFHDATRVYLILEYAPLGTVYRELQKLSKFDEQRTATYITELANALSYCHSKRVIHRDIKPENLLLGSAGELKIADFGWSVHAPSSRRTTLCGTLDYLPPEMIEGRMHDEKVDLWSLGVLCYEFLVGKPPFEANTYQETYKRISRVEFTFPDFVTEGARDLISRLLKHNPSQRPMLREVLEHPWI
T2 sequence (Q9ULW0 1-43 partner limits assumed): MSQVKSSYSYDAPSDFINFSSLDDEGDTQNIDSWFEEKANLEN
The assay can be described thus: AuroraA-TPX2 Homogeneous Time Resolved Fluorescent (HTRF) kinase assay. In kind it is biochemical. To be noted: average, read-out: AurA/TP X2_ IC50_IP (Avg). The gist of the method:
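Aurora-A/TPX2 phosphorylates biotinylated PLK peptide (about 1 µM) with ATP for about 120 min in 60 mM HEPES pH 7.5, 10 mM MgCl2, 2 mM DTT. EDTA quench, overnight equilibration with Eu-anti-phosphoPLK antibody and SA-APC; HTRF read at 615/655 nm after 320 nm excitation.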

The mark [1] stands for this setting: given as numbers, unit inferred.

The text below walks through data of patent EP1984353B1, “AURORA KINASE MODULATORS AND METHOD OF USE” (Amgen, Inc, priority 2006, dated 2007).

pIC50: −log10 of the molar value. Read-outs that look alike come from different tables or passages of the source.

T1 sequence (Q96GD4 whole entry): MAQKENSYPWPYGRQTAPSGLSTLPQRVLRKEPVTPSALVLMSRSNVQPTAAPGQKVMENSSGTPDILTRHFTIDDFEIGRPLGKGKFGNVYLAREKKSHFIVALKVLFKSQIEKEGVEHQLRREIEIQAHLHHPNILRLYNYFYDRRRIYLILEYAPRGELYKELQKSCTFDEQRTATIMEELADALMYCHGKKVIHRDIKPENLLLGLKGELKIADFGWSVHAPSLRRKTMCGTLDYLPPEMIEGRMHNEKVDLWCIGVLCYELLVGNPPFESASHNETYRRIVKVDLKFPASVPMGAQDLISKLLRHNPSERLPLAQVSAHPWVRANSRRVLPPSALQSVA

Take `CCOc1ccccc1-c1nnc(Nc2ccc(Oc3ncccc3-c3ccnc(N)n3)cc2)c2ccccc12` [compound 322, N-(4-((3-(2-amino-4-pyrimidinyl)-2-pyridinyl)oxy)phenyl)-4-(2-(ethyloxy)phenyl)-1-phthalazinamine]: the pIC50 at AuroraB (given as class symbols) and at AuroraA-TPX2 (given as class symbols) was not below 7.00 throughout.
On to `CN1CCN(CCCNc2nccc(-c3cccnc3Oc3ccc(Nc4nnc(-c5ccccn5)c5ccccc45)cc3)n2)CC1` [compound 323, N-(4-((3-(2-((3-(4-methyl-1-piperazinyl)propyl)amino)-4-pyrimidinyl)-2-pyridinyl)oxy)phenyl)-4-(2-pyridinyl)-1-phthalazinamine], for which the pIC50 is not below 7.00 on AuroraB (given as class symbols) and 6.30 to 7.00 on AuroraA-TPX2 (given as class symbols).
For `CN(C)C1CCN(CCCNc2nccc(-c3cccnc3Oc3ccc(Nc4nnc(-c5ccccc5)c5ccccc45)cc3)n2)C1` (stereo not shown) [compound 324, N-(4-((3-(2-((3-(3-(dimethylamino)-1-pyrrolidinyl)propyl)amino)-4-pyrimidinyl)-2-pyridinyl)oxy)phenyl)-4-phenyl-1-phthalazinamine] the same measures were not below 7.00 and not below 7.00.
On the same counts, the results for `CC1CN(CCCNc2nccc(-c3cccnc3Oc3ccc(Nc4nnc(-c5ccccc5)c5ccccc45)cc3)n2)CC(C)O1` (stereo not shown) [compound 326, N-(4-((3-(2-((3-(2,6-dimethyl-4-morpholinyl)propyl)amino)-4-pyrimidinyl)-2-pyridinyl)oxy)phenyl)-4-phenyl-1-phthalazinamine] are not below 7.00 and not below 7.00.
On the same counts, the results for `O=C(O)CCNc1nccc(-c2cccnc2Oc2ccc(Nc3nnc(-c4ccccc4)c4ccccc34)cc2)n1` [compound 327, N-(4-(2-((4-((4-phenyl-1-phthalazinyl)amino)phenyl)oxy)-3-pyridinyl)-2-pyrimidinyl)-beta-alanine] are 5.60 to 6.30 and 6.30 to 7.00.
Turning to `C[C@H]1CN(CCCNc2nccc(-c3cccnc3Oc3ccc(Nc4nnc(-c5ccccc5)c5ccccc45)cc3)n2)[C@@H](C)CO1` [compound 328, N-(4-((3-(2-((3-((2S,5S)-2,5-dimethyl-4-morpholinyl)propyl)amino)-4-pyrimidinyl)-2-pyridinyl)oxy)phenyl)-4-phenyl-1-phthalazinamine], the pIC50 at AuroraB (setting [1]) was 8.37; at AuroraA-TPX2 (setting [1]) it was 7.19.
For the compound `Nc1nccc(-c2cccnc2Oc2ccc(Nc3nnc(-c4cccc(COP(=O)(O)O)c4)c4ccccc34)cc2)n1` [compound 351, (3-(4-((4-((3-(2-amino-4-pyrimidinyl)-2-pyrldinyl)oxy)phenyl)amino)-1-phthalazinyl)pbenyl)methyl dihydrogen phosphate], the pIC50 at AuroraB (given as class symbols) is not below 7.00; on AuroraA-TPX2 (given as class symbols) it was 6.30 to 7.00.
For `Nc1nccc(-c2cccnc2Oc2ccc(Nc3nnc(N4CCCC(CO)C4)c4ccccc34)cc2)n1` (stereo not shown) [compound 352, (1-(4-((4-((3-(2-amino-4-pyrimidinyl)-2-pyridinyl)oxy)phenyl)amino)-1-phthalazinyl)-3-piperidinyl)methanol] the same measures were not below 7.00 and not below 7.00.
As for `Nc1nccc(-c2cccnc2Oc2ccc(Nc3nnc(N4CCCC(O)C4)c4ccccc34)cc2)n1` (stereo not shown) [compound 354, 1-(4-((4-((3-(2-amino-4-pyrimidinyl)-2-pyridinyl)oxy)phenyl)amino)-1-phthalazinyl)-3-piperidinol], the pIC50 on AuroraB (setting [1]) is 7.59; on AuroraA-TPX2 (setting [1]), 7.06.
Consider `Nc1nccc(-c2cccnc2Oc2ccc(Nc3nnc(-c4cccc(CCO)c4)c4ccccc34)cc2)n1` [compound 355, 2-(3-(4-((4-((3-(2-amino-4-pyrimidinyl)-2-pyridinyl)oxy)phenyl)amino)-1-phthalazinyl)phenyl)ethanol], for which the pIC50 on AuroraB (given as class symbols) and on AuroraA-TPX2 (given as class symbols) was not below 7.00 throughout.
For `Nc1nccc(-c2cccnc2Oc2ccc(Nc3nnc(-c4ccccn4)c4ccccc34)cc2)n1` [compound 356, N-(4-((3-(2-amino-4-pyrimidinyl)-2-pyridinyl)oxy)phenyl)-4-(2-pyridinyl)-1-phthalazinamine], the pIC50 on AuroraB (given as class symbols) and on AuroraA-TPX2 (given as class symbols) was not below 7.00 each time.
